Measured values published in US6737383B1, “Herbicidal oxadiazolidines” (priority 1999, dated 2004).

Assays:
[1] = tested on: sugar beet; assay: Test B pre/postemergence sugar beet; type: in vivo, Beta vulgaris
In short: (§1)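 Test chemicals in a non-phytotoxic solvent mixture with surfactant were sprayed preemergence onto planted seeds and postemergence onto plants 2 to 18 cm tall (1- to 4-leaf stage). After twelve to sixteen days in a greenhouse, injury was visually rated against untreated controls from 0 (no effect) to 10 (complete control).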

[2] = tested on: cocklebur; assay: Test B pre/postemergence cocklebur; type: in vivo, Xanthium strumarium
In short: as §1

[3] = tested on: bedstraw; assay: Test B pre/postemergence bedstraw; type: in vivo, Galium aparine
In short: as §1

[4] = tested on: pigweed; assay: Test B pre/postemergence pigweed; type: in vivo, Amaranthus retroflexus
In short: as §1

[5] = tested on: giant foxtail; assay: Test B pre/postemergence giant foxtail; type: in vivo, Setaria faberii
In short: as §1

[6] = tested on: duck salad; assay: Test B flood test duck salad; type: in vivo, Heteranthera limosa
In short: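 Plants were grown to the 2-leaf stage before treatment with test chemical, then held in a greenhouse for twelve to sixteen days. Injury was visually rated against untreated controls on a 0–10 scale, where 0 is no effect and 10 is complete control.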

[7] = tested on: rape; assay: Test B pre/postemergence rape; type: in vivo, Brassica napus
In short: as §1

[8] = tested on: purple nutsedge; assay: Test B pre/postemergence purple nutsedge; type: in vivo, Cyperus rotundus
In short: as §1

[9] = tested on: wheat; assay: Test B pre/postemergence wheat; type: in vivo, Triticum aestivum
In short: as §1

[10] = tested on: velvetleaf; assay: Test B pre/postemergence velvetleaf; type: in vivo, Abutilon theophrasti
In short: as §1

[11] = tested on: soybean; assay: Test B pre/postemergence soybean; type: in vivo, Glycine max
In short: as §1

[12] = tested on: surinam grass; assay: Test B pre/postemergence surinam grass; type: in vivo, Brachiaria decumbens
In short: as §1

[13] = tested on: crabgrass; assay: Test B pre/postemergence crabgrass; type: in vivo, Digitaria sanguinalis
In short: as §1

[14] = tested on: morningglory; assay: Test B pre/postemergence morningglory; type: in vivo, Ipomoea hederacea
In short: as §1

[15] = tested on: corn; assay: Test B pre/postemergence corn; type: in vivo, Zea mays
In short: as §1

[16] = Postemergence, Rate 250 g/ha, scale 0 to 10
[17] = Postemergence, Rate 500 g/ha, scale of 0 to 10 where 0 is no effect and 10 is complete control
[18] = Preemergence, Rate 62 g/ha, scale of 0 to 10 where 0 is no effect and 10 is complete control
[19] = Preemergence, Rate 125 g/ha, scale of 0 to 10 where 0 is no effect and 10 is complete control
[20] = Preemergence, Rate 250 g/ha, scale 0 to 10, 0 is no effect, 10 is complete control
[21] = Preemergence, Rate 500 g/ha, scale 0 to 10, 0 is no effect, 10 is complete control
[22] = Rate 62 g/ha, Postemergence, scale 0 to 10 (0 no effect, 10 complete control)
[23] = Rate 125 g/ha, Postemergence, scale 0 to 10, 0 is no effect, 10 is complete control

For `CC(C)N(C(=O)n1oc(=O)n(C(C)Cl)c1=O)c1ccccc1` (stereo not drawn) [Compound 438], the “Sugarbeets plant response rating” value [1, 16] was 0, the “Sugarbeets plant response rating” value [1, 17] was 0 and the “Plant response rating, Sugarbeets” value [1, 18] was 0. The “Plant response rating, Sugarbeets” value [1, 19] was 0, the “Sugarbeets plant response rating” value [1, 20] was 0 and the “Sugarbeets plant response rating” value [1, 21] was 0. The “Sugarbeets plant response rating” value [1, 22] was 0, the “Sugarbeets plant response rating” value [1, 23] was 0 and the “Cocklebur plant response rating” value [2, 16] was 3. For the same molecule, the “Cocklebur plant response rating” value [2, 17] was 3, the “Plant response rating, Cocklebur” value [2, 18] was 0 and the “Plant response rating, Cocklebur” value [2, 19] was 0. The “Cocklebur plant response rating” value [2, 20] was 0, the “Cocklebur plant response rating” value [2, 21] was 0 and the “Cocklebur plant response rating” value [2, 22] was 0. For the same molecule, the “Cocklebur plant response rating” value [2, 23] was 0, the “Bedstraw plant response rating” value [3, 16] was 0 and the “Bedstraw plant response rating” value [3, 20] was 0. For the same molecule, the “Bedstraw plant response rating” value [3, 22] was 0, the “Bedstraw plant response rating” value [3, 23] was 0 and the “Redroot pigweed plant response rating” value [4, 16] was 0. For the same molecule, the “Redroot pigweed plant response rating” value [4, 17] was 0, the “Plant response rating, Redroot pigweed” value [4, 18] was 2 and the “Plant response rating, Redroot pigweed” value [4, 19] was 2. The “Redroot pigweed plant response rating” value [4, 20] was 5, the “Redroot pigweed plant response rating” value [4, 21] was 10 and the “Redroot pigweed plant response rating” value [4, 22] was 0. The “Redroot pigweed plant response rating” value [4, 23] was 0, the “Giant foxtail plant response rating” value [5, 16] was 9 and the “Giant foxtail plant response rating” value [5, 17] was 9. For the same molecule, the “Plant response rating, Giant foxtail” value [5, 18] was 2, the “Plant response rating, Giant foxtail” value [5, 19] was 7 and the “Giant foxtail plant response rating” value [5, 20] was 10. For the same molecule, the “Giant foxtail plant response rating” value [5, 21] was 10, the “Giant foxtail plant response rating” value [5, 22] was 5 and the “Giant foxtail plant response rating” value [5, 23] was 5. The “Plant response rating, Ducksalad (0 to 10 scale, 0 is no effect, 10 is complete control)” value ([6]; Rate 62 g/ha, flood test species, Pre-emergence, visual evaluation after twelve to sixteen days) was 0, the “Ducksalad plant response rating (0 to 10 scale, 0 is no effect, 10 is complete control)” value ([6]; Rate 125 g/ha, under heading Pre-emergence, flood test species, visual evaluation after twelve to sixteen days) was 0 and the “Ducksalad plant response rating” value ([6]; Rate 250 g/ha, Pre-emergence (flood test species), scale 0 to 10, 0 is no effect, 10 is complete control) was 0. The “Ducksalad plant response rating” value ([6]; Rate 500 g/ha, Pre-emergence, flood test species, scale 0 to 10 (0 no effect, 10 complete control)) was 0, the “Rape plant response rating” value [7, 16] was 0 and the “Rape plant response rating” value [7, 17] was 0. The “Plant response rating, Rape” value [7, 18] was 0, the “Plant response rating, Rape” value [7, 19] was 0 and the “Rape plant response rating” value [7, 20] was 0. The “Rape plant response rating” value [7, 21] was 2, the “Rape plant response rating” value [7, 22] was 0 and the “Rape plant response rating” value [7, 23] was 0. For the same molecule, the “Nutsedge plant response rating” value [8, 16] was 0, the “Nutsedge plant response rating” value [8, 17] was 0 and the “Plant response rating, Nutsedge” value [8, 18] was 0. For the same molecule, the “Plant response rating, Nutsedge” value [8, 19] was 0, the “Nutsedge plant response rating” value [8, 20] was 0 and the “Nutsedge plant response rating” value [8, 22] was 0. For the same molecule, the “Nutsedge plant response rating” value [8, 23] was 0, the “Wheat plant response rating” value [9, 16] was 0 and the “Wheat plant response rating” value [9, 17] was 0. The “Plant response rating, Wheat” value [9, 18] was 0, the “Plant response rating, Wheat” value [9, 19] was 0 and the “Wheat plant response rating” value [9, 20] was 0. The “Wheat plant response rating” value [9, 21] was 0, the “Wheat plant response rating” value [9, 22] was 0 and the “Wheat plant response rating” value [9, 23] was 0. For the same molecule, the “Velvetleaf plant response rating” value [10, 16] was 0, the “Velvetleaf plant response rating” value [10, 17] was 0 and the “Plant response rating, Velvetleaf” value [10, 18] was 0. The “Plant response rating, Velvetleaf” value [10, 19] was 0, the “Velvetleaf plant response rating” value [10, 20] was 5 and the “Velvetleaf plant response rating” value [10, 21] was 6. For the same molecule, the “Velvetleaf plant response rating” value [10, 22] was 0, the “Velvetleaf plant response rating” value [10, 23] was 0 and the “Soybean plant response rating” value [11, 16] was 2. For the same molecule, the “Soybean plant response rating” value [11, 17] was 6, the “Plant response rating, Soybean” value [11, 18] was 0 and the “Plant response rating, Soybean” value [11, 19] was 0. For the same molecule, the “Soybean plant response rating” value [11, 20] was 0, the “Soybean plant response rating” value [11, 21] was 2 and the “Soybean plant response rating” value [11, 22] was 1. For the same molecule, the “Soybean plant response rating” value [11, 23] was 1, the “B. signalgrass plant response rating” value ([12]; Postemergence, Rate 250 g/ha, scale 0 to 10, 0 no effect, 10 complete control) was 0 and the “B. signalgrass plant response rating” value [12, 17] was 0. For the same molecule, the “Plant response rating, B. signalgrass” value [12, 18] was 0, the “Plant response rating, B. signalgrass” value [12, 19] was 0 and the “B. signalgrass plant response rating” value [12, 20] was 0. The “B. signalgrass plant response rating” value [12, 21] was 2, the “B. signalgrass plant response rating” value [12, 22] was 0 and the “B. signalgrass plant response rating” value [12, 23] was 0. For the same molecule, the “Crabgrass plant response rating” value [13, 16] was 8, the “Crabgrass plant response rating” value [13, 17] was 9 and the “Plant response rating, Crabgrass” value [13, 18] was 3. For the same molecule, the “Plant response rating, Crabgrass” value [13, 19] was 6, the “Crabgrass plant response rating” value [13, 20] was 9 and the “Crabgrass plant response rating” value [13, 21] was 10. For the same molecule, the “Crabgrass plant response rating” value [13, 22] was 2, the “Crabgrass plant response rating” value [13, 23] was 4 and the “Morningglory plant response rating” value [14, 16] was 9. The “Morningglory plant response rating” value [14, 17] was 10, the “Plant response rating, Morningglory” value [14, 18] was 0 and the “Plant response rating, Morningglory” value [14, 19] was 0. The “Morningglory plant response rating” value [14, 20] was 0, the “Morningglory plant response rating” value [14, 21] was 2 and the “Morningglory plant response rating” value [14, 22] was 4. The “Morningglory plant response rating” value [14, 23] was 8, the “Corn plant response rating” value [15, 16] was 0 and the “Corn plant response rating” value [15, 17] was 3. The “Plant response rating, Corn” value [15, 18] was 0, the “Plant response rating, Corn” value [15, 19] was 0 and the “Corn plant response rating” value [15, 20] was 0. For the same molecule, the “Corn plant response rating” value [15, 21] was 0, the “Corn plant response rating” value [15, 22] was 0 and the “Corn plant response rating” value [15, 23] was 0.
